Experimental data from article PMC4594923, “Food Polyphenols Fail to Cause a Biologically Relevant Reduction of COX-2 Activity” (PLoS ONE, 2015).
“Also recorded” adds a separate entry of the source. Marks after values point to notes of the source that are not given here.

Columns and labels:
[1] = system: COX–2; settings: different murine colitis models; cited from earlier work
[2] = target: T1, ovine recombinant COX–1 (Ovis aries, UniProt P05979); test: cell-free COX–1 enzyme assay (PGE2 formation, LC-MS); assay type: biochemical; design: purchased Cayman Chemicals/ Biomol, Hamburg, Germany
T1 sequence (P05979 25-600): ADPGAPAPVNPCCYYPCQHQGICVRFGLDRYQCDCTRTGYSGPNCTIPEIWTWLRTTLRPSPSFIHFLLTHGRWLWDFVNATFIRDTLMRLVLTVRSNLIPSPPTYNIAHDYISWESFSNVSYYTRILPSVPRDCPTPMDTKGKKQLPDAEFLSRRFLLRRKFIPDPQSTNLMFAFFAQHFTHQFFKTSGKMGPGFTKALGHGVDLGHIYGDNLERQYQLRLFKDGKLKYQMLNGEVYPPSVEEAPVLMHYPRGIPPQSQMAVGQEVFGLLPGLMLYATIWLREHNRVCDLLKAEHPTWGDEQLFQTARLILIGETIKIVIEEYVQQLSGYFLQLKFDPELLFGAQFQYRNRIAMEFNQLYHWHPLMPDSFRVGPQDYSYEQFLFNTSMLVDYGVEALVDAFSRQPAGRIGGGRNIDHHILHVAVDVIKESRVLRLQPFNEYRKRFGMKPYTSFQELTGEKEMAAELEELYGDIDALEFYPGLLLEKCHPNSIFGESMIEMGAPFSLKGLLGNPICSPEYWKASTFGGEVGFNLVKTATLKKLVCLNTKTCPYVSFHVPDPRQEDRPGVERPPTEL
Method: The in vitro assays were performed as described [6, 16, 18] and COX metabolites were quantified by LC-MS [18].
Primary human monocytes were freshly isolated from human blood. Blood was collected from healthy human subjects after written informed consent was obtained. […] After 24 h, the supernatant was sampled for LC-MS and cells were collected for the COX–2 expression analysis by Western Blotting.
GraphPad Prism 5.0 (GraphPad Software, San Diego, USA) was used for data analysis, the fitting of dose response curves and calculation of the IC50 values. Statistical differences were determined by Dunnetts test (LPS vs. other groups).

[3] = system: arachidonic acid (AA) cascade; test: plasma oxylipin/PG levels in LPS induced sepsis in mice;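 for all read-outs here: male C57BL/6N mice given LPS, plasma oxylipins quantified by LC-MS after solid-phase extraction, pretreatment or vehicle given intraperitoneally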; assay type: in vivo, C57BL/6N mice; settings: mice, 24 h after LPS, vs. LPS group; for plasma PGE2 level: compound i. p. 100 mg/kg bw 2 h before LPS (10 mg/kg bw i. p.)
[4] = system: arachidonic acid (AA) cascade; test: kidney tissue oxylipin/PG levels in LPS induced sepsis in mice;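 note: male C57BL/6N mice challenged with LPS, kidney taken 24 h later, oxylipins quantified by LC-MS after solid-phase extraction of tissue homogenate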
[5] = system: COX–2 protein; settings: Western Blot, same assay conditions; cited from earlier work
[6] = system: COX–2 protein; settings: Western Blot, same assay conditions; cited from earlier work; remark: listed apart in the source
[7] = target: T1, ovine recombinant COX–1; settings: based on PGE2 formation, n=3, same assay conditions; cited from earlier work
[8] = kidney tissue 24 h after LPS treatment, LPS +, mean
[9] = kidney tissue 24 h after LPS treatment, LPS +, mean, < = below LOQ
[10] = mice, compound i. p. 100 mg/kg bw 2 h before LPS, 24 h after LPS, vs. LPS group

For `Oc1ccc(/C=C/c2cc(O)cc(O)c2)cc1` [Resveratrol, resveratrol], the “COX–2 expression and PGE2 production” value [1] is given as “reduced COX–2 expression and PGE2 production”, the IC50 [2] is given as 490 nM and the “effect on COX–1 dependent PGE2 formation, cell-free enzyme assay” value [2] is given as “dose-dependently decreased; also recorded: inhibited”. For the same compound, the “plasma PGE2 level” value [3] was “increased”, the “plasma PGE2 level” value ([3]; listed as resveratrol) was “elevated” and the “sum of linoleic acid (LA) derived epoxy-metabolites in plasma” value ([3]; compound i. p. 100 mg/kg bw 2 h before LPS) was “decrease”. The “1a,1b-dihomo-PGF2α” value [4, 8] was 3.9^‡ nM, the “4,5-DiHDPE” value [4, 8] was 15 nM and the 4-HDHA [4, 8] was 16 nM. For the same compound, the “5(6)-EpETrE” value [4, 8] was 66 nM, the “5,6-DiHETrE” value [4, 8] was 1.5 nM and the 5-HEPE [4, 8] was 1.1 nM. The 5-HETE [4, 8] was 12 nM, the 5-oxo-ETE [4, 8] was 17 nM and the 6-keto-PGF1α [4, 8] was 80^* nM. The “7,8-DiHDPE” value [4, 8] was 1.7 nM, the 7-HDHA [4, 8] was 2.7 nM and the “8(9)-EpETrE” value [4, 8] was 15 nM. For the same compound, the “8,9-DiHETrE” value [4, 8] was 1.6 nM, the 8-HDHA [4, 8] was 16 nM and the 8-HETE [4, 8] was 4.2 nM. For the same compound, the 8-iPF2a [4, 8] was 3.2^‡ nM, the “9(10)-EpODE” value [4, 8] was 8.2 nM and the “9(10)-EpOME” value [4, 8] was 81 nM. The “9(10)-Epoxystearic acid” value [4, 8] was 40 nM, the “9,10,13-TriHOME” value [4, 8] was 7.4 nM and the “9,10-DiHODE” value [4, 8] was 1.3 nM. For the same compound, the “9,10-DiHOME” value [4, 8] was 22 nM, the “9,10-Dihydroxystearic acid” value [4, 8] was 60 nM and the “9,12,13-TriHOME” value [4, 8] was 45 nM. The 9-HETE [4, 8] was 3.1 nM, the 9-HODE [4, 8] was 350^* nM and the 9-HOTrE [4, 8] was 3.9 nM. The 9-oxo-ODE [4, 8] was 43 nM, the “10(11)-EpDPE” value [4, 8] was 30 nM and the “10,11-DiHDPE” value [4, 8] was 2.3 nM. The 10-HDHA [4, 8] was 3.5 nM, the “11(12)-EpETE” value [4, 8] was 1.5 nM and the “11(12)-EpETrE” value [4, 8] was 35 nM. For the same compound, the “11,12-DiHETrE” value [4, 8] was 2.6 nM, the 11-HDHA [4, 8] was 4.9 nM and the 11-HETE [4, 8] was 31^‡ nM. For the same compound, the “12(13)-EpODE” value [4, 8] was 3.4 nM, the “12(13)-EpOME” value [4, 8] was 59 nM and the “12,13-DiHOME” value [4, 8] was 48 nM. The 12-HEPE [4, 8] was 2.1 nM, the 12-HETE [4, 8] was 24 nM and the “13(14)-EpDPE” value [4, 8] was 24 nM. For the same compound, the “13,14-DiHDPE” value [4, 8] was 3.2 nM, the “13,14-dihydro-15-keto-PGF2α” value [4, 8] was 4.3^‡ nM and the 13-HDHA [4, 8] was 11^‡ nM. For the same compound, the 13-HODE [4, 8] was 270 nM, the 13-HOTrE [4, 8] was 3.6 nM and the 13-oxo-ODE [4, 8] was 6.1 nM. For the same compound, the “14(15)-EpETE” value [4, 8] was 1.7 nM, the “14(15)-EpETrE” value [4, 8] was 28 nM and the “14,15-DiHETE” value [4, 8] was 0.62 nM. For the same compound, the “14,15-DiHETrE” value [4, 8] was 7.1 nM, the 14-HDHA [4, 8] was 12 nM and the “15(16)-EpODE” value [4, 8] was 24 nM. For the same compound, the “15(S)-HETrE” value [4, 8] was 7.4^‡ nM, the “15,16-DiHODE” value [4, 8] was 20 nM and the 15-HETE [4, 8] was 38^‡ nM. For the same compound, the 15-oxo-ETE [4, 8] was 7.5 nM, the “16(17)-EpDPE” value [4, 8] was 23 nM and the “16,17-DiHDPE” value [4, 8] was 8.5 nM. For the same compound, the 16-HDHA [4, 8] was 6.9 nM, the “17(18)-EpETE” value [4, 8] was 2.5 nM and the “17,18-DiHETE” value [4, 8] was 2.6^* nM. For the same compound, the 17-HDHA [4, 8] was 17 nM, the 18-HEPE [4, 8] was 1.3 nM and the “19(20)-EpDPE” value [4, 8] was 43 nM. For the same compound, the “19,20-DiHDPE” value [4, 8] was 68 nM, the 20-HDHA [4, 8] was 19 nM and the 20-HEPE [4, 8] was 5.3 nM. For the same compound, the EKODE [4, 8] was 45 nM, the PGD2 [4, 8] was 20^† nM and the PGE1 [4, 8] was 11^† nM. The PGE2 [4, 8] was 210^‡ nM, the PGF1α [4, 8] was 6.2^† nM and the PGF2α [4, 8] was 70^‡ nM. For the same compound, the TXB2 [4, 8] was 3.8^† nM, the “5,6-DiHETE” value [4, 9] was less than 0.25 nM and the 5-iPF2α [4, 9] was less than 1.0 nM. The “8(9)-EpETE” value [4, 9] was less than 1.0 nM, the “12,13-DiHODE” value [4, 9] was less than 2.0 nM and the “13,14-dihydro-15-keto-PGE1” value [4, 9] was 0.6 nM. It also gave a 20-HETE [4, 9] of less than 2.7 nM, a PGD1 [4, 9] of 0.72 nM and a PGF2α ([4]; kidney tissue 24 h after LPS treatment, LPS +, mean, second listing of PGF2α (r9)) of 70 nM. The “kidney 6-keto-PGF1α level” value [4, 10] was “increased”, the “kidney 8-iPGF2α level” value [4, 10] was “increased” and the “kidney 13,14-dihydro-15-keto-PGE1 level” value [4, 10] was “increased”. The “kidney PGE2 level” value [4, 10] was “increased” and the “kidney PGF2α level” value [4, 10] was “increased”.

In the case of `C[C@@H]1C[C@H]2[C@@H]3CCC4=CC(=O)C=C[C@]4(C)[C@@]3(F)[C@@H](O)C[C@]2(C)[C@@]1(O)C(=O)CO` [dexamethasone], the “COX-2 Expression, primary monocytes” value [5] is given as 1 µM - 3 nM: COX-2 ↓, the “COX-2 Expression, HCA-7” value [6] is given as “no effect (up to 100 µM)” and the “IC50 (95% CI), cell-free – COX-1” value [7] is given as “no effect (up to 100 µM)”.
